According to the NIST ThermoML archive (doi:10.1016/j.tca.2011.07.006):
± gives the expanded uncertainty stated by the source.

How the values were obtained:
[1] = Crystal; DTA
[2] = Molar enthalpy of transition or fusion; conditions: Crystal; DSC

Normal melting temperature [1]	Molar enthalpy of transition or fusion [2]	Structure (SMILES)
97.0 ± 0.5 °C	3.61 ± 0.311 kcal/mol	CCn1cc[n+](C)c1.[Cl-] [1-ethyl-3-methylimidazolium chloride]
6.5 ± 0.5 °C	3.3 ± 0.167 kcal/mol	CCn1cc[n+](C)c1.[Cl-].[Cl][Al]([Cl])[Cl] [1-ethyl-3-methyl-1H-imidazolium tetrachloroaluminate]
